Assays:
beta-arrestin1 = experiment: Beta-arrestin 1 levels in rat brain areas after chronic antidepressant treatment (immunoblot); type: in vivo; details: three weeks of treatment
Description: On the 22nd day, rats were decapitated, blood collected and brain regions immediately dissected. Tissue homogenization was carried out in a glass-teflon homogenizer with ice-cold buffer containing 20 mM Tris.Cl pH 7.4, 2 mM EDTA, 1 mM DTT and antiprotease cocktail (Sigma). After initial centrifugation at 800 g for 5 min, the supernatant was collected and further centrifuged at 48,000 g for 30 min using a Beckman Ti80 rotor. The resulting supernatant and pellet were separated: the supernatant fraction was collected and centrifuged at 120,000 g for 45 min and the supernatant obtained was used for all measurements; the pellet was resuspended in the homogenization buffer and the pellet fraction obtained was used for all measurements.
On the day of assay, cytosolic and/or membrane fraction were thawed. 10 μg total protein aliquots were taken for protein separation by SDS-(10%) polyacrylamide gel electrophoresis. The resulting proteins were transferred to nitrocellulose paper by use of electroblotting apparatus. Blots were blocked with 5% BSA for 1 hr in TBS containing 0.1% Tween-20 (TTBS) and incubated overnight with a monoclonal antibody to beta-arrestin1 (Transduction Labs, diluted 1:250). The immune bands were detected by subsequent incubation with anti-mouse IgG labeled with horseradishperoxidase using the Enhanced Chemiluminescence Western Blot Detection System (Amersham) followed by exposure to Kodak X-Omat film. […] Peak heights of immunoreactive bands presented as arbitrary absorbance units, were determined with a computer-assisted imaging system for semi-quantitative measurements. 10 μg rat cortical membranes run in each blot as a standard reference.
Beta-arrestin1 levels were measured in three rat brain areas: cortex, hippocampus and striatum.

Gs and Gi proteins = details: cited from earlier work

Compound	Cytosolic beta-arrestin-1 in rat cortex (beta-arrestin1; rat cortex, cytosolic fraction, 10 mg/kg twice daily intragastrically, compared with control group) [%]	Membrane beta-arrestin 1 in rat cortex (beta-arrestin1; rat cortex, membrane fraction, 10 mg/kg twice daily intragastrically, compared with control group) [%]	Cytosolic beta-arrestin-1 in rat hippocampus (beta-arrestin1; rat hippocampus, cytosolic fraction, 10 mg/kg twice daily intragastrically, compared with control group) [%]	Beta-arrestin 1 levels in striatum (beta-arrestin1; rat striatum)	Dopamine-induced Gs hyperfunction of untreated patients with schizophrenia (Gs and Gi proteins; leukocytes of patients with schizophrenia)	Gs level and function (Gs and Gi proteins; patients with schizophrenia, reduction correlated with intensity of Parkinsonian side effects)
CN(C)CCCN1c2ccccc2CCc2ccccc21 [imipramine]	165.6	156.8	179.2	no alterations		
O=C(CCCN1CCC(O)(c2ccc(Cl)cc2)CC1)c1ccc(F)cc1 [haloperidol]					corrected	significant decrease in Gs level and function to below normal levels

Source: patent publication US7736621B2, “Methods for gauging the effect of a depression treatment by determining the levels of beta-arrestin 1 and G-protein coupled receptor kinase 2” (Hypatia Ltd., priority 2004, dated 2010)
